This is an account of results in patent US20070122422A1, “Sodium-independent small neutral amino acid transporter transporting L- and D- amino acids” (Japan Science and Technology Corporation, priority 2000, published 2007).

Common to all, as to format: cell-based
In experiment [1] the target is T1, asc-1 of mouse (co-expressed with 4F2hc of mouse) (Mus musculus, UniProt P63115).
T1 construct: expressed in transfected cells; host or cells: Xenopus oocytes injected with cRNA
T1 sequence (P63115 1-530): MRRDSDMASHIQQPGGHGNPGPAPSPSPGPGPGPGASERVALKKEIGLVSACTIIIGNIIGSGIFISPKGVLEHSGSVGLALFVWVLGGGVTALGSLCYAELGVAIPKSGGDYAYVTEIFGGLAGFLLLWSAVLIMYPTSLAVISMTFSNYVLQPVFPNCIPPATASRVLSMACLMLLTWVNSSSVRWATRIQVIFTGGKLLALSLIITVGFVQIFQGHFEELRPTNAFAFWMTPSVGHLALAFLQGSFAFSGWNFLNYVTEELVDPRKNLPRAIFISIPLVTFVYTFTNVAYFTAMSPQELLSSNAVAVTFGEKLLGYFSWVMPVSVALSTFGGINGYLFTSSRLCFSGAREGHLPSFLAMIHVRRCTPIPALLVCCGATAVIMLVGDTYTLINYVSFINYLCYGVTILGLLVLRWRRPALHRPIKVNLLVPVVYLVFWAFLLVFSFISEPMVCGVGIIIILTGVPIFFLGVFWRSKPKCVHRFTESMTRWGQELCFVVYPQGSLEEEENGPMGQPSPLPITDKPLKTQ
T1 sequence (P10852 1-526 partner): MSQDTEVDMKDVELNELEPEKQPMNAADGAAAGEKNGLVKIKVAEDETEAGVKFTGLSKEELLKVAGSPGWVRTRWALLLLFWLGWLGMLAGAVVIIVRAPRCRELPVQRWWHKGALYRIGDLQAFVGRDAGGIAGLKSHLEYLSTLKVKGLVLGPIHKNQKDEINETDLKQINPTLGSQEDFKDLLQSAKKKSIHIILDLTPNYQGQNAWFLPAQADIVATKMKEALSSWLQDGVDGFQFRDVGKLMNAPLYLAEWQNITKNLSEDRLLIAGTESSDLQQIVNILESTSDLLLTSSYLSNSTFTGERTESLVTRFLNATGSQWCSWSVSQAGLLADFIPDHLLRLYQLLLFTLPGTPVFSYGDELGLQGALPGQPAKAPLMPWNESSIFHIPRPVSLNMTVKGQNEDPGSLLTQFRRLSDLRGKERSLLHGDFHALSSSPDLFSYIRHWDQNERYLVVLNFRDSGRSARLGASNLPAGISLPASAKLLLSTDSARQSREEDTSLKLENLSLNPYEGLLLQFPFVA
Briefly: Michaelis-Menten kinetic test of substrate incorporation by Xenopus oocytes co-expressing asc-1 and 4F2hc. As to conditions: ratio to the Vmax value for alanine (defined as 1.00).

Experiment [2] concerns the target T1, asc-1 of mouse (co-expressed with 4F2hc of mouse). As to the kind of experiment: Inhibition of 14C-alanine incorporation by added amino acids and analogs in oocytes co-expressing asc-1 and 4F2hc. The settings on record: 14C-alanine 50 μM; 5 mM non-labeled compound; Na+-free uptake solution. Here is the method: Into oocytes were injected 12 ng of asc-1 gene cRNA of mouse, 13 ng of 4F2hc gene cRNA of mouse or 12 ng asc-1 gene cRNA of mouse/13 ng of 4F2hc gene cRNA of mouse to express followed by incubating for 3 days. […] Thus, the oocytes were allowed to stand for 30 minutes in a Na^+-free uptake solution [100 mM choline chloride, 2 mM potassium chloride, 1.8 mM calcium chloride, 1 mM magnesium chloride, 5 mM HEPES; pH 7.4] containing ^14C-alanine (100 μM) as a substrate and the rate of the substrate incorporated into the cells was measured by way of counting the radioactivity incorporated thereinto.
In an experiment of incorporation of alanine by oocytes into which both asc-1 gene cRNA of mouse and 4F2hc gene cRNA of mouse were injected, influence of addition of various amino acid and analogs thereof was investigated.
In an experiment of incorporation of alanine, a method according to that mentioned in the above Example 2(1) was carried out using oocytes into which both asc-1 gene cRNA of mouse and 4F2hc gene cRNA of mouse were injected. Here, a Na^+-free uptake solution was used and incorporation of ^14C-alanine (50 μM) was measured in the presence and absence of 5 mM of various compounds (non-labeled).

Experiment [3] deals with T2, intracellular substrate-binding site of asc-1 of mouse (Mus musculus, UniProt P63115).
T2 construct: expressed in transfected cells; host or cells: Xenopus oocytes injected with cRNA
T2 sequence (P63115 1-530): T1 sequence (P63115 1-530)
T2 sequence (P10852 1-526 partner): T1 sequence (P10852 1-526 partner)
As to the kind of experiment: Release of injected 14C-amino acid from oocytes co-expressing asc-1 and 4F2hc on extracellular alanine. As to conditions: alanine 100 μM added to Na+-free uptake solution. As for the experimental part:
In oocytes into which cRNA of asc-1 gene and cRNA of 4F2hc gene of mouse were injected together, release of preloaded ^14C-amino acid mediated by asc-1 was checked whereby the substrate selectivity of intracellular substrate-binding site of asc-1 was checked.
^14C-Amino acid (˜3nCi) of 100 μM in an amount of 100 nl was injected into the oocytes into which both asc-1 gene cRNA and 4F2hc gene cRNA of mouse were injected together, washed with an ice-cooled Na^+-free uptake solution containing no alanine and transferred to a Na^+-free uptake solution to which alanine (100 μM) was added or not added at room temperature (18° C.-22° C.) and the amount of ^14C-amino acid released outside the cells was measured.
Black bars in FIG. 21 show the case where alanine was added to a Na^+-free uptake solution while bars with oblique lines show the case where alanine was not added to a Na^+-free uptake solution.

Experiment [4] concerns the target T3, human asc-1 (co-expressed with human 4F2hc) (Homo sapiens, UniProt Q9NS82).
T3 construct: expressed in transfected cells
T3 sequence (Q9NS82 1-523): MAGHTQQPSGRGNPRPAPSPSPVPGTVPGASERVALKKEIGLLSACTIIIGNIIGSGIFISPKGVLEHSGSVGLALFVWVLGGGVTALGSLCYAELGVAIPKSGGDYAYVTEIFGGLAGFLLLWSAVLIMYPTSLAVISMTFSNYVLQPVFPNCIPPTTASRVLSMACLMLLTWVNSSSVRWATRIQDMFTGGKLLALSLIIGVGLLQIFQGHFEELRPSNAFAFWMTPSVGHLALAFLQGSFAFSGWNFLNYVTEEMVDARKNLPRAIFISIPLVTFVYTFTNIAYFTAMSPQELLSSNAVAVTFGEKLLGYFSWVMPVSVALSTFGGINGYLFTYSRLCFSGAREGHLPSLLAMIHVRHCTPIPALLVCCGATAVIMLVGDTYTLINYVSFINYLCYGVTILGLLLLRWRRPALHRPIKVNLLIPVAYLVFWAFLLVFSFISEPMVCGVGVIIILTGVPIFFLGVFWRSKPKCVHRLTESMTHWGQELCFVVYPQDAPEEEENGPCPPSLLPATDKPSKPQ
As to the kind of experiment: Incorporation of 14C-alanine by oocytes co-expressing human asc-1 and human 4F2hc. As to conditions: oocytes where both human asc-1 and 4F2hc were expressed together.
Description: Comparison was made between incorporation of ^14C-alanine in the case where human asc-1 gene cRNA was solely expressed in oocytes with that in the case where both human asc-1 gene cRNA and human 4F2hc gene cRNA were expressed in oocytes. Expression was carried out by injection of 12.5 ng of human asc-1 gene cRNA, 12.5 ng of human 4F2hc gene cRNA or 12.5 ng of human asc-1 gene cRNA/12.5 ng of human 4F2hc gene cRNA into oocytes and incubation was conducted for three days. With regard to the oocytes into which human asc-1 gene cRNA, 4F2hc gene cRNA or human asc-1 gene cRNA/4F2hc gene cRNA was injected, an experiment for incorporation of substrate was carried out according to Example 2(1) using alanine as a substrate.

`C[C@H](N)C(=O)O` [L-Alanine]: the Vmax entry in experiment [1] is “(1.00)”. In addition, in experiment [2], the “inhibition of incorporation of 14C-alanine mediated by asc-1” value is reported as “particularly strongly inhibited”. Further, the “release of injected 14C-labeled amino acid by extracellular alanine” value in experiment [3] was “increase in release”. The incorporation of alanine result in experiment [4] was “big incorporation”.
For `N[C@@H](CO)C(=O)O` [L-Serine], the Vmax in experiment [1] amounted to 1.02. The “inhibition of incorporation of 14C-alanine mediated by asc-1” value in experiment [2] is “particularly strongly inhibited”. Besides, the “release of injected 14C-labeled amino acid by extracellular alanine” value in experiment [3] is recorded as “increase in release”.
